Test results published in article PMC5587642, “A Novel Benzocoumarin-Stilbene Hybrid as a DNA ligase I inhibitor with in vitro and in vivo anti-tumor activity in breast cancer models” (Scientific Reports, 2017).

Columns and labels:
MDA-MB-231 cells = experiment: MTT cell viability assay; type: cell-based, human; details: for inhibition at 10 µM: Homo sapiens, MDA-MB-231, 48 h, read-out: Antiproliferative activity at 10μM in MDA-MB-231; for inhibition at 10 µM / Antiproliferative activity at 10μM in MDA-MB-231: % inhibition
Description: (§1) Cell viability assay was performed as described previously. Briefly, cells were seeded in 96 well plates and treated with different concentrations of compound 19 for 48 h. After drug treatment, MTT reagent was added in each well of the plate and cell viability was quantified by measuring the absorbance at 590 nm.

[1] = system: 4T1 (Mouse Breast Cancer); experiment: MTT cell viability assay; type: cell-based; details: 10 µM
Description: as §1

A549 (Lung) = experiment: MTT cell viability assay; type: cell-based
Description: as §1

DLD1 (Colon) = experiment: MTT cell viability assay; type: cell-based
Description: as §1

PANC-1 (Pancreas) = experiment: MTT cell viability assay; type: cell-based
Description: as §1

FEN1 protein = molecular target: T1, FEN1 protein (Homo sapiens, UniProt P39748); experiment: Flap cleavage assay; type: biochemical; details: compound 19 at 5, 10, 20 µM
T1 construct: His-tag (C); made in house; host or cells: E. coli BL21DE3
T1 sequence (P39748 whole entry): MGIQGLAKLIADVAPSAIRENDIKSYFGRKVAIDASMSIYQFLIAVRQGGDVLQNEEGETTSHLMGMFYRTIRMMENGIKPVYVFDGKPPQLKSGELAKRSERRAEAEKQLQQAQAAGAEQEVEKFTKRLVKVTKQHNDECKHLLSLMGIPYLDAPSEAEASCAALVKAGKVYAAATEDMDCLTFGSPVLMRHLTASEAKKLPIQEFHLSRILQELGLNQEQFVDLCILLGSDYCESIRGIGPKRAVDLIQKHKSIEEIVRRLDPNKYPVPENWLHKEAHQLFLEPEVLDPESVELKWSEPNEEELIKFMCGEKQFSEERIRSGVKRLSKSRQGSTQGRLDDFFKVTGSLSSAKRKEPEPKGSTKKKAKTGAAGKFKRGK
Description: Purification of FEN 1: Full length FEN1 DNA template was taken from pShuttle-FEN1hWT, a gift from Sheila Stewart (Addgene plasmid#35027) is subcloned into a pET41a expression vector containing C-terminal His-tag. pET41FEN1His freshly transformed into expression host BL21DE3 E. coli cells (Novagene), single colonies picked and inoculated in 5ml of LB media containing 50μg/ml of Kanamycin, grown for 3 to 4 hrs and further subcultured in 100 ml of LB medium containing 50μg/ml of Kanamycin and grown at 37°C till the OD reached to 0.6-0.7, induced at 0.5 mM IPTG at 16°C for 18hrs. Pellets were collected and lysed in 20 mM tris 150 mM NaCl (Lysis buffer) containing 1mM PMSF and 1mM benzamidine hydrochloride and purified by Ni-NTA affinity chromatography.
Flap cleavage assay: All oligos were purchased from Integrated DNA Technologies and dissolved in nuclase free water at concentration of 100μM. FAM-labeled 25+6 Flap-mer (5’-[…]-3’*6FAM)) was annealed with 52- mer (5’-[…]-3’) and 27-mer (5’-[…]-3’) to form a complementary double strand flap cleavage substrate. […] The cleaved and uncleaved DNA molecules are separated on 15% Urea gel and bands were detected by Image Quant LAS 4010 (GE Healthcare).

A172 (Brain) = experiment: MTT cell viability assay; type: cell-based
Description: as §1

PLC/PRF/5 (Liver) = experiment: MTT cell viability assay; type: cell-based
Description: as §1

SK-OV-3 (Ovary) = experiment: MTT cell viability assay; type: cell-based
Description: as §1

SMILES | melting point | inhibition at 10 µM (MDA-MB-231 cells) | further results
Cc1cccc2c1ccc1c(/C=C/c3ccccc3)cc(=O)oc12 [Compound 32] | 178 to 179 °C | 18.2% | 
COc1ccc(/C=C/c2cc(=O)oc3c2ccc2c(C)cccc23)c(OC)c1 [Compound 35] |  | 12.8% | 
COc1cc(/C=C/c2cc(=O)oc3c2ccc2c(OC)cccc23)cc(OC)c1 [Compound 26] |  |  | Antiproliferative activity at 10μM in MDA-MB-231 (MDA-MB-231 cells): 50.03%; % Inhibition of cell viability at 10 µM, 4T1 (Mouse Breast Cancer) [1]: 36.12%; % Inhibition of cell viability at 10 µM, A549 (Lung) (A549 (Lung)): NA (NA= Not active (% Inhibition <30%)); % Inhibition of cell viability at 10 µM, DLD1 (Colon) (DLD1 (Colon)): NA (NA= Not active (% Inhibition <30%)); % Inhibition of cell viability at 10 µM, PANC-1 (Pancreas) (PANC-1 (Pancreas)): NA (NA= Not active (% Inhibition <30%))
CN(C)c1ccc(/C=C/c2cc(=O)oc3c2ccc2ccccc23)cc1 [Compound 12] |  |  | Antiproliferative activity at 10μM in MDA-MB-231 (MDA-MB-231 cells): 4.62%
COc1cccc2c1ccc1c(/C=C/c3ccc([N+](=O)[O-])cc3)cc(=O)oc12 [Compound 24] | 220 to 222 °C | 20% | 
COc1ccc(/C=C/c2cc(=O)oc3c2ccc2c(C)cccc23)cc1OC [Compound 39] |  | 10.1% | 
O=C(O)c1cc[c]([Sb](=[O])([OH])[OH])cc1[N+](=O)[O-] [NSC13755, reference compound] |  |  | Inhibition of FEN1 flap cleavage activity (FEN1 protein): less clevage
COc1cc(/C=C/c2cc(=O)oc3c2ccc2c(C)cccc23)cc(OC)c1 [Compound 34] |  | 0.54% | 
N#Cc1ccc(/C=C/c2cc(=O)oc3c2ccc2ccccc23)cc1 [Compound 14] |  | 12.4% | 
COc1ccc(/C=C/c2cc(=O)oc3c2ccc2c(OC)cccc23)c(OC)c1 [Compound 30] |  | 17.9% | 
COc1cc(/C=C/c2cc(=O)oc3c2ccc2c(C)cccc23)cc(OC)c1OC [Compound 38] |  | 22% | 
Cc1cccc2c1ccc1c(/C=C/c3ccc([N+](=O)[O-])cc3)cc(=O)oc12 [Compound 33] | 238 to 239 °C | 6.12% | 
COc1ccc(OC)c(/C=C/c2cc(=O)oc3c2ccc2c(OC)cccc23)c1 [Compound 29] |  | 10.4% | 
COc1ccc(/C=C/c2cc(=O)oc3c2ccc2c(OC)cccc23)cc1OC [Compound 27] |  | 8.81% | 

More lines, main results first:

melting point | SMILES | inhibition at 10 µM (MDA-MB-231 cells) | further results
180 to 182 °C | COc1ccc(/C=C/c2cc(=O)oc3c2ccc2ccccc23)cc1OC [Compound 17] |  | 
168 to 170 °C | COc1ccc(OC)c(/C=C/c2cc(=O)oc3c2ccc2ccccc23)c1 [Compound 20] | 7.53% | 
142 to 144 °C | COc1ccc(/C=C/c2cc(=O)oc3c2ccc2ccccc23)cc1 [Compound 11] | 1.46% | 
145 to 146 °C | COc1cccc(/C=C/c2cc(=O)oc3c2ccc2ccccc23)c1 [Compound 15] |  | 
188 to 189 °C | COc1cccc2c1ccc1c(/C=C/c3ccc(C#N)cc3)cc(=O)oc12 [Compound 25] | 27.9% | 
160 to 161 °C | COc1cccc(OC)c1/C=C/c1cc(=O)oc2c1ccc1c(C)cccc12 [Compound 37] | 11.6% | 
205 to 206 °C | COc1cc(/C=C/c2cc(=O)oc3c2ccc2c(OC)cccc23)cc(OC)c1OC [Compound 31] | 1.7% | 
181 to 183 °C | COc1ccc(/C=C/c2cc(=O)oc3c2ccc2ccccc23)c(OC)c1 [Compound 21] | 0.16% | 
174 to 175 °C | COc1cccc(OC)c1/C=C/c1cc(=O)oc2c1ccc1ccccc12 [Compound 16] | > 50% | % Inhibition of cell viability at 10 µM, MDA-MB-231 (Breast) (MDA-MB-231 cells; 10 µM): 56.48%; % Inhibition of cell viability at 10 µM, 4T1 (Mouse Breast Cancer) [1]: 33.89%; % Inhibition of cell viability at 10 µM, A172 (Brain) (A172 (Brain)): NA (NA= Not active (% Inhibition <30%)); % Inhibition of cell viability at 10 µM, A549 (Lung) (A549 (Lung)): NA (NA= Not active (% Inhibition <30%)); % Inhibition of cell viability at 10 µM, DLD1 (Colon) (DLD1 (Colon)): NA (NA= Not active (% Inhibition <30%)); % Inhibition of cell viability at 10 µM, PANC-1 (Pancreas) (PANC-1 (Pancreas)): NA (NA= Not active (% Inhibition <30%)); % Inhibition of cell viability at 10 µM, PLC/PRF/5 (Liver) (PLC/PRF/5 (Liver)): NA (NA= Not active (% Inhibition <30%)); % Inhibition of cell viability at 10 µM, SK-OV-3 (Ovary) (SK-OV-3 (Ovary)): NA (NA= Not active (% Inhibition <30%))
178 to 179 °C | COc1cccc(OC)c1/C=C/c1cc(=O)oc2c1ccc1c(OC)cccc12 [Compound 28] |  | 
172 to 173 °C | COc1cc(/C=C/c2cc(=O)oc3c2ccc2ccccc23)cc(OC)c1OC [Compound 18] | 8.2% | 
170 to 171 °C | COc1ccc(/C=C/c2cc(=O)oc3c2ccc2c(OC)cccc23)cc1 [Compound 23] | 6.04% | 
